From patent publication US10927086B2, “Substituted sulfoximine compounds as indoleamine 2,3-dioxygenase (IDO) inhibitors” (Merck Sharp & Dohme Corp., priority 2017, dated 2021)

Experiments:
IDO1 [1] = molecular target: T1, IDO1 (Homo sapiens (Human), UniProt P14902); test: IDO1 Enzyme Assay; format: biochemical; details: HIS-tagged recombinant IDO1, fluorescence readout
Description: (§1) Compounds to be tested were serially diluted in ten 3-fold steps in DMSO starting from 10 mM DMSO stocks. Compound dilutions or DMSO alone were then dispensed from the dilution plate into a Greiner black 384-well assay plate (catalog #781086) using an Echo 555 acoustic liquid handler (Labcyte).
HIS-tagged IDO1 protein was recombinantly expressed in Escherichia coli using ZYP5052 autoinduction media supplemented with 500 μM delta aminolevulinic acid for 48 h at 16° C. IDO1 protein was purified using Ni^2+-affinity resin and size exclusion chromatography. Purified protein was then diluted in assay buffer (50 mM Tris pH 7.0, 1% glycerol, 20 μM methylene blue, 0.05% Tween-20, 20 mM sodium ascorbate, 100 units/mL catalase to obtain a final IDO1 concentration of 40 nM. IDO1 solution […] or buffer alone ([…]) were dispensed to wells of the assay plate using a BioRAPTR liquid dispenser (Beckman Coulter). Assay plates containing compound and IDO1 enzyme were incubated at RT for 30 min. Afterwards, 10 μL of 400 μM tryptophan in assay buffer were added to each well of the assay plate using a BioRAPTR liquid dispenser. Plates were incubated at RT for 60 min and reactions were quenched by addition of 10 μL of 0.5 M methyl isonipecotate in dimethyl sulfoxide. Plates were sealed and incubated at 37° C. for 4 h or 50° C. for 2 h. The plates are allowed to cool and then centrifuged for 1 min at 1000×g. The resulting fluoresence was measured in an Envision plate reader (Perkin Elmer) with a 400/25 nm excitation filter and an 510/20 nm emission filter.
Potencies were calculated by linear least squares fit to the four parameter logistic IC50 equation.
Target sequence in this assay (P14902 whole entry, species assumed): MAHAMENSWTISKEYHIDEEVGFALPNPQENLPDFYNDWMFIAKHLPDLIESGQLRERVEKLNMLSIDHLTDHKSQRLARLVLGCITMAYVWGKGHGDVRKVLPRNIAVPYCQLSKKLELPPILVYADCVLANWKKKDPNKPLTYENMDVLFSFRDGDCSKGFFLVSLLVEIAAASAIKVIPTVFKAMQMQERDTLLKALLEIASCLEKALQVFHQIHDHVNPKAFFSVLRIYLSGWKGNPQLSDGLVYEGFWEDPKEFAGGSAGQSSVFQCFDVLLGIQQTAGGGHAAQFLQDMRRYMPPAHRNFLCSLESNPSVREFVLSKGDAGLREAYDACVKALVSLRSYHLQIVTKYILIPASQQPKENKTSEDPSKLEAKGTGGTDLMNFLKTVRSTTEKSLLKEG

IDO1 [2] = molecular target: T1, IDO1; test: IDO1 Cellular Assay in Hela Cells Stimulated with IFNγ; format: cell-based; details: about 48 hours, read-out: IDO1 HELA Cell Assay, IC50
Description: Hela cells were cultured in complete Hela culture medium (90% EMEM, 10% heat-inactivated fetal bovine serum) and expanded to about 1×10^9 cells. The cells were then collected and frozen down at 10×10^6 cells/vial in 1 mL frozen medium (90% complete Hela culture medium, 10% DMSO)
as §1, with “stocks in Echo low volume plate(s).” for “stocks.”, “plate(s)” for “plate”, “into” for “into a”, “#781086, 50 nL/well)” for “#781086)”, “550” for “555”
Target sequence in this assay (P14902 whole entry): as the sequence (P14902 whole entry, species assumed) above
Frozen Hela cells were thawed and transferred into Hela assay medium (99% complete Hela culture medium, 1% Pen/Strep) with 20 mL medium/vial of cells. The cells were spun down at 250 g in a table top centrifuge for 5 min and suspended in same volume of Hela assay medium. The cells were then counted and adjusted to a density of 2×10^5 cells/ml in Hela assay medium. Sterile L-tryptophan were added to the cells with final concentration of 300 uM L-tryptophan. A small aliquot (2 mL/plate) of Hela cells were set aside and were not treated with IFNγ, to serve as the Max-E control. The rest of Hela cells were added with sterile IFNγ (Cat #285-IF, R & D systems) with a final concentration of 100 ng/mL.
Hela cells with and without IFNγ were dispensed to the respective wells of 384-well assay plates containing the compounds. The plates were incubated for about 48 hours at a 37° C., 5% CO2 incubator. Afterwards, 12 μL of 0.5 M methyl isonipecotate in dimethyl sulfoxide were added into each well and the plates were sealed and incubated at 37° C. without CO2 overnight. The plates were centrifuged for 1 min at 200×g. The resulting fluorescence was measured in a Spectramax plate reader (Molecular Devices) with a 400 nm excitation filter and a 510 nm emission filter.
The fluorescence intensity of each well was corrected for the background observed in wells with non-IFNγ-treated cells and was expressed as a fraction of the intensity observed in wells of IFNγ-treated cells and DMSO only. Potencies were calculated by linear least squares fit to the four parameter logistic IC50 equation.

IC50 (IDO1 [1]) [nM]	IC50 (IDO1 [2]) [nM]	Structure (SMILES)
234	329	CS(=N)(=O)N1CCO[C@@H](CNc2nonc2/C(=N\O)N[C@H]2Cc3ccc(F)cc32)C1 (single isomer, unassigned) [Example 60]
92.9	117	CS(=N)(=O)NCC(O)CNc1nonc1/C(=N\O)N[C@H]1Cc2ccc(F)cc21 (single isomer, unassigned) [Example 55]
49.5	49.7	CC(O)CS(=N)(=O)CCNc1nonc1/C(=N\O)N[C@@H]1Cc2ccc(F)cc21 (single isomer, unassigned) [Example 85]
73.7	32.2	CS(=N)(=O)C1CC2(CC(Nc3nonc3/C(=N\O)N[C@@H]3Cc4ccc(F)cc43)C2)C1 (single isomer, unassigned) [Example 74]
39.9	17.6	CS(=N)(=O)N1CC2(CC(Nc3nonc3/C(=N\O)N[C@@H]3Cc4ccc(F)cc43)C2)C1 (single isomer, unassigned) [Example 76]
77.6	91	CS(=N)(=O)CCC(O)CNc1nonc1/C(=N\O)N[C@@H]1Cc2ccc(F)cc21 (single isomer, unassigned) [Example 79]
94.5	68.5	CS(=N)(=O)CCC(O)CNc1nonc1/C(=N\O)N[C@@H]1Cc2ccc(F)cc21 (single isomer, unassigned) [Example 80]
120	129	CS(=N)(=O)N1CCO[C@@H](CNc2nonc2/C(=N\O)N[C@H]2Cc3ccc(F)cc32)C1 (single isomer, unassigned) [Example 59]
80.8	59.6	CN=S(C)(=O)NCCNc1nonc1/C(=N\O)N[C@H]1Cc2ccc(F)cc21 (single isomer, unassigned) [Example 66]
47.4	40.5	CC(O)CS(=N)(=O)CCNc1nonc1/C(=N\O)N[C@@H]1Cc2ccc(F)cc21 (single isomer, unassigned) [Example 86]
147	183	CS(=N)(=O)N[C@H]1C[C@@H](Oc2nonc2/C(=N\O)N[C@@H]2Cc3ccc(F)cc32)C1 (single isomer, unassigned) [Example 62]
63.7	140	CN=S(C)(=O)NCCNc1nonc1/C(=N\O)N[C@H]1Cc2ccc(F)cc21 (single isomer, unassigned) [Example 67]
80	72.3	CS(=N)(=O)N1CC(CNc2nonc2/C(=N\O)N[C@@H]2Cc3ccc(F)cc32)C1 (single isomer, unassigned) [Example 71]
108	102	CN(CCNc1nonc1/C(=N\O)N[C@H]1Cc2ccc(F)cc21)S(C)(=N)=O (stereo partly drawn) [Example 54, N-[(7S)-4-fluorobicyclo[4.2.0]octa-1,3,5-trien-7-yl]-N′-hydroxy-4-({2-[methyl(S-methylsulfonimidoyl)amino]ethyl}amino)-1,2,5-oxadiazole-3-carboximidamide]
70.6	109	CS(=O)(CCNc1nonc1/C(=N\O)N[C@H]1Cc2ccc(F)cc21)=NCCO (single isomer, unassigned) [Example 57]
49.5	63.5	C[S@](=N)(=O)C1CC(Nc2nonc2/C(=N\O)N[C@@H]2Cc3ccc(F)cc32)C1 (single isomer, unassigned) [Example 72]
56.8	55.2	CC(O)CS(=N)(=O)CCNc1nonc1/C(=N\O)N[C@@H]1Cc2ccc(F)cc21 (single isomer, unassigned) [Example 84]

The remaining lines, values behind:

Structure (SMILES)	IC50 (IDO1 [1]) [nM]	IC50 (IDO1 [2]) [nM]
CS(=N)(=O)CCCCNc1nonc1/C(=N/O)N[C@H]1Cc2ccc(F)cc21 (single isomer, unassigned) [Example 39]	50.8	35.7
CN=S(C)(=O)CCNc1nonc1/C(=N/O)N[C@H]1Cc2ccc(F)cc21 (single isomer, unassigned) [Example 34]	59.8	77
CS(=N)(=O)N1CCC(Nc2nonc2/C(=N/O)N[C@H]2Cc3ccc(F)cc32)C1 (single isomer, unassigned) [Example 43]	169	157
CS(=N)(=O)NCCNc1nonc1/C(=N/O)N[C@H]1Cc2ccc(F)cc21 (stereo partly drawn) [Example 11, N—((S)-4-fluorobicyclo[4.2.0]octa-1(6),2,4-trien-7-yl)-N′-hydroxy-4-((2-(methylsulfonoamidimidamido)ethyl)amino)-1,2,5-oxadiazole-3-carboximidamide]	38.7	27.4
CN=S(C)(=O)CCNC(=O)CNc1nonc1/C(=N/O)N[C@H]1Cc2ccc(F)cc21 (stereo partly drawn) [Example 40, N-[2-(N,S-dimethylsulfonimidoyl)ethyl]-N~2~-(4-{N-[(7S)-4-fluorobicyclo[4.2.0]octa-1,3,5-trien-7-yl]-N′-hydroxycarbamimidoyl}-1,2,5-oxadiazol-3-yl)glycinamide]	237	201
CN=S(C)(=O)CCNc1nonc1/C(=N/O)N[C@H]1Cc2ccc(F)cc21 (single isomer, unassigned) [Example 35]	81.6	43.2
CS(=N)(=O)NCCCCNc1nonc1/C(=N/O)N[C@H]1Cc2ccc(F)cc21 (stereo partly drawn) [Example 53, N-[(7S)-4-fluorobicyclo[4.2.0]octa-1,3,5-trien-7-yl]-N′-hydroxy-4-({4-[(S-methylsulfonimidoyl)amino]butyl}amino)-1,2,5-oxadiazole-3-carboximidamide]	69.4	45.1
CS(=N)(=O)N1CCC(Nc2nonc2/C(=N/O)N[C@H]2Cc3ccc(F)cc32)C1 (single isomer, unassigned) [Example 46]	175	153
CS(=N)(=O)CC(=O)N1CC(Oc2nonc2/C(=N/O)N[C@H]2Cc3ccc(F)cc32)C1 (single isomer, unassigned) [Example 49]	112	99.5
CS(=N)(=O)CCCCNc1nonc1/C(=N/O)N[C@H]1Cc2ccc(F)cc21 (single isomer, unassigned) [Example 38]	47.2	26.7
CS(=N)(=O)CCCCOc1nonc1/C(=N/O)N[C@H]1Cc2ccc(F)cc21 (single isomer, unassigned) [Example 32]	178	241
CS(=N)(=O)N1CCC(Nc2nonc2/C(=N/O)N[C@H]2Cc3ccc(F)cc32)C1 (single isomer, unassigned) [Example 45]	107	85
CS(=N)(=O)CCOCCNc1nonc1/C(=N/O)N[C@H]1Cc2ccc(F)cc21 (single isomer, unassigned) [Example 47]	154	196
N=S1(=O)CCC1CNc1nonc1/C(=N/O)N[C@H]1Cc2ccc(F)cc21 (single isomer, unassigned) [Example 23]	143	99.4
CS(=N)(=O)CC(O)CNc1nonc1/C(=N/O)N[C@H]1Cc2ccc(F)cc21 (single isomer, unassigned) [Example 28]	60.7	110
CS(=N)(=O)CCCNc1nonc1/C(=N/O)N[C@H]1Cc2ccc(F)cc21 (single isomer, unassigned) [Example 24]	35.4	39.9
CS(=N)(=O)N1CCC(Nc2nonc2/C(=N/O)N[C@H]2Cc3ccc(F)cc32)C1 (single isomer, unassigned) [Example 44]	220	219
CS(=N)(=O)N1CCC(Nc2nonc2/C(=N/O)N[C@H]2Cc3ccc(F)cc32)CC1 (single isomer, unassigned) [Example 19]	67.2	62.1
